Measured values: patent US20250339454A1, “COMPOSITIONS AND METHODS FOR THE PREVENTION OF LOSS OF ORGAN FUNCTION ASSOCIATED WITH CHRONIC ORGAN DISEASE” (Revelation Biosciences, Inc., priority 2023, published 2025)
“Also recorded” adds a separate entry of the source. Read-outs that look alike come from different tables or passages of the source.

Tested on: rat UUO model of acute kidney injury and chronic kidney disease
Assay type: in vivo
Text: Composite data represents the average of 3 anatomically distinct depths (10 images/depth/rat/group=˜60-65% of renal cortical area).

[1] = rat serum, Day 7 post UUO, all groups, dose dependent, relative to the positive control group

Row | Compound | UUO-induced increases in renal cortical CVF (reference compound, dose not given) | IL-6 (marker of inflammation) (UUO model) | fibrosis (collagen volume fraction, total collagen deposition via PicoSirius Red) (daily administration, dose dependent, relative to the positive control group) | UUO-induced increases in renal cortical CVF (dosed at 0.3 mg/kg) | UUO-induced increases in renal cortical CVF (dosed at 0.9 mg/kg) | IL-1β (marker of inflammation) (rat serum, Day 7 post UUO) | IL-18 (marker of inflammation) (rat serum, Day 7 post UUO) | circulating anti-inflammatory interleukin-10 (IL-10) [1] | circulating hepcidin [1] | circulating neutrophil gelatinase-associated lipocalin (NGAL) [1] | circulating transforming growth factor-β (TGF-β) (rat serum, Day 7 post UUO, daily administration, dose dependent, relative to the positive control group)
1 | Cc1cccc(-c2[nH]c(C(C)(C)C)nc2-c2ccc3nccnc3c2)n1 [SB-525334, reference compound] | attenuated | – | – | – | – | – | – | – | – | – | –
2 | phosphorylated hexaacyl disaccharide [REVTx-300] | – | no increase | significant reduction; also recorded: Dose-dependent reduction | attenuated | attenuated | relatively minor increase | relatively minor increase | significantly increased | significantly increased | significantly increased | significant reduction
